Experiments:
[1] = assay type: in vivo
[2] = oxymorphone-induced Straub tail test for antagonist activity; assay type: in vivo

| Structure (SMILES) | Agonist Activity ED50, Mice (SC) [1] [mg/kg] | Agonist Activity ED50, Mice (PO) ([1]; PO) [mg/kg] | times as potent as morphine sulfate, orally ([1]; mice, oral, relative to morphine sulfate) | ED50 ([2]; sc, read-out: subcutaneous ED50, antagonist activity) [mg/kg] | times the antagonist activity of butorphanol ([2]; subcutaneous, relative to butorphanol) |
| --- | --- | --- | --- | --- | --- |
| COc1ccc2c(c1)[C@]13CCN(C)[C@H](C2)[C@@H]1CC(C)(C)OC3.Cl (racemic) [BL-6028, 3-Methoxy-7,7,17-trimethyl-6-oxamorphinan Hydrochloride] | 0.053 |  |  |  |  |
| CN1CC[C@]23COC(C)(C)C[C@H]2[C@H]1Cc1ccc(O)cc13 (racemic) [BL-6092, 3-Hydroxy-7,7,17-trimethyl-6-oxamorphinan] | 0.038 |  |  |  |  |
| CC1(C)C[C@H]2[C@H]3Cc4ccc(O)cc4[C@@]2(CCN3CC2CC2)CO1.Cl (racemic) [BL-6097, 17-Cyclopropylmethyl-7,7-dimethyl-3-hydroxy-6-oxamorphinan Hydrochloride] | 0.083 | 0.35 | about 8.9 times | 0.8 | about 1.2 times |
